Test results taken from patent US9982005B2, “Macrolides and methods of their preparation and use” (President and Fellows of Harvard College, priority 2013, dated 2018).
Converted amounts (≈) assume the structure as drawn. Where two headings read alike, the source gives them in different places.

What was measured:
Assay type in all cases: cell-based
[1] = test system: SA101 S. aureus ATCC29213; assay: broth dilution MIC, S. aureus SA101
From the text: (§1) We have collected MIC data for a total of 50 novel macrolides that this platform has produced against over 21 unique strains of B. subtilis, E. coli, S. aureus, S. pneumoniae, and H. influenzae, including several multidrug-resistant strains, with a special focus on macrolide resistant mechanisms (vide supra). Azithromycin was included as a control macrolide. CLSI standard procedures for broth dilution MIC determination were used. […] These genotypes can be constitutive or inducible. The finding that C4-epi (unnatural) isomers of the “azaketolide” macrolide class have enhanced activities relative to C4 natural isomers is very exciting.

EC878 E. coli tolC = assay: broth dilution MIC, E. coli EC878
From the text: as §1

[2] = test system: BS1723 B. subtilis BS168 WT wild type; assay: broth dilution MIC, B. subtilis BS1723; settings: BS1723 B. subtilis BS168 WT wild type
From the text: as §1

E. faecalis strains = assay: MIC against E. faecalis strains (Table M8); settings: Enterococcus faecalis, E. faecalis 29212
A. baumannii strains = assay: MIC against A. baumannii strains (Table M8); settings: Acinetobacter baumannii, BAA747, A. baumannii BAA747-1
K. pneumoniae strains = assay: MIC against K. pneumoniae strains (Table M8); settings: Klebsiella pneumoniae, K. pneumoniae 10031
S. aureus strains = assay: MIC against S. aureus strains (Table M7); settings: Staphylococcus aureus
Method in brief: (§2)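 Following CLSI guidelines, each compound was serially diluted in broth against the bacterial strain and the MIC recorded. Azithromycin was included in parallel as a comparator macrolide.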

E. coli strains = assay: MIC against E. coli strains (Table M7); settings: Escherichia coli, ATCC25922, E. coli ATCC 25922
Method in brief: as §2

EC107 E. coli ATCC25922 = assay: broth dilution MIC, E. coli EC107
From the text: as §1

H. influenzae strains = assay: MIC against H. influenzae strains (Table M8); settings: Haemophilus influenzae
Method in brief: as §2

EC882 E. coli imp = assay: broth dilution MIC, E. coli EC882
From the text: as §1

BS1725 B. subtilis ermC = assay: broth dilution MIC, B. subtilis BS1725
From the text: as §1

S. pneumoniae strains = assay: MIC against S. pneumoniae strains (Tables M7, M8); settings: Streptococcus pneumoniae
From the text: CLSI standard procedures for broth dilution MIC determination were used. […] These genotypes can be constitutive or inducible.

[3] = Staphylococcus aureus, ATCC29213, SA101 S. aureus ATCC29213, read-out: MIC
[4] = Bacillus subtilis, read-out: MIC
[5] = Escherichia coli, read-out: MIC
[6] = Bacillus subtilis, BS1725 B. subtilis ermC (+ery)
[7] = Bacillus subtilis, BS1725 B. subtilis ermC (−ery)

Structure (SMILES)	MIC [1, 3] [µg/mL]	MIC (EC878 E. coli tolC; Escherichia coli) [µg/mL]	MIC [2, 4] [µg/mL]	MIC (EC107 E. coli ATCC25922; [5]) [µg/mL]	MIC (EC882 E. coli imp; Escherichia coli) [µg/mL]	MIC (BS1725 B. subtilis ermC; [6]) [µg/mL]	MIC (BS1725 B. subtilis ermC; [7]) [µg/mL]	further results
CC[C@H]1OC(=O)[C@H](C)C(=O)[C@H](C)[C@@H](O[C@@H]2OC(C)CC(N(C)C)C2O)[C@](C)(OC)C[C@@H](C)CN(C(C)=O)[C@H](C)[C@H]2N(CCCCn3cc(-c4cccc(N)c4)nn3)C(=O)O[C@]12C (stereo partly shown) [FSM-20767]	16 (≈ 18.4 µM)	4 (≈ 4.6 µM)	16 (≈ 18.4 µM)	> 32	1 (≈ 1.15 µM)	> 32	8 (≈ 9.19 µM)	MIC (E. faecalis strains): 4 µg/mL (≈ 4.6 µM); MIC (A. baumannii strains): > 32 µg/mL; MIC (K. pneumoniae strains): 32 µg/mL (≈ 36.8 µM); MIC (S. aureus strains; ATCC29213, S. aureus ATCC 29213, read-out: MIC S. aureus (ATCC 29213)): 16 µg/mL (≈ 18.4 µM); MIC (S. aureus strains; S. aureus 506, read-out: MIC S. aureus (506)): > 32 µg/mL; MIC (S. aureus strains; S. aureus 1708, read-out: MIC S. aureus (1708)): 32 µg/mL (≈ 36.8 µM); MIC (S. aureus strains; USA300, S. aureus USA300, read-out: MIC S. aureus (USA300)): 32 µg/mL (≈ 36.8 µM); MIC (E. coli strains): > 32 µg/mL; MIC (H. influenzae strains; H. influenzae 49247, read-out: MIC H. influenzae (49247)): 8 µg/mL (≈ 9.19 µM); MIC (H. influenzae strains; H. influenzae 49766, read-out: MIC H. influenzae (49766)): 16 µg/mL (≈ 18.4 µM); MIC (S. pneumoniae strains; S. pneumoniae 160, read-out: MIC S. pneumonae (160)): 2 µg/mL (≈ 2.3 µM); MIC (S. pneumoniae strains; S. pneumoniae 1509, read-out: MIC S. pneumoniae (1509)): > 32 µg/mL; MIC (S. pneumoniae strains; S. pneumoniae 1533, read-out: MIC S. pneumoniae (1533)): > 32 µg/mL; MIC (S. pneumoniae strains; S. pneumoniae 1537, read-out: MIC S. pneumoniae (1537)): > 32 µg/mL; MIC (S. pneumoniae strains; S. pneumoniae 49619, read-out: MIC S. pneumoniae (49619)): 0.5 µg/mL (≈ 0.575 µM)
CC[C@H]1OC(=O)[C@H](C)C(=O)C[C@@H](O[C@@H]2OC(C)CC(N(C)C)C2O)[C@@](C)(OC)C[C@@H](C)CN[C@H](C)[C@H]2N(CCCCn3cc(-c4cccnn4)nn3)C(=O)O[C@]12C (stereo partly shown) [FSM-30506]	> 32	> 32	> 32	> 32	> 32	> 32	> 32	
CC[C@H]1OC(=O)[C@H](C)C(=O)C[C@@H](O[C@@H]2OC(C)CC(N(C)C)C2O)[C@@](C)(OC)C[C@@H](C)CN(C(C)=O)[C@H](C)[C@H]2N(CCCCn3cc(-c4cccc(N)c4)nn3)C(=O)O[C@]12C (stereo partly shown) [FSM-30512]	> 32	> 32	> 32	> 32	> 32	> 32	> 32	
CC[C@H]1OC(=O)[C@H](C)C(=O)C[C@@H](O[C@@H]2OC(C)CC(N(C)C)C2O)[C@@](C)(OC)C[C@@H](C)CN(C(C)=O)[C@H](C)[C@H]2N(CCCCn3cc(-c4ccccn4)nn3)C(=O)O[C@]12C (stereo partly shown) [FSM-30515]	> 32	> 32	> 32	> 32	> 32	> 32	> 32	
CC[C@H]1OC(=O)[C@H](C)C(=O)C[C@@H](O[C@@H]2OC(C)CC(N(C)C)C2O)[C@](C)(OC)C[C@@H](C)CN(C(C)=O)[C@H](C)[C@H]2N(CCCCN=[N+]=[N-])C(=O)O[C@]12C (stereo partly shown) [FSM-10789]	> 32	4 (≈ 5.41 µM)	> 32	> 32	8 (≈ 10.8 µM)	> 32	> 32	
CC[C@H]1OC(=O)C(C)(F)C(=O)[C@@H](C)[C@@H](O[C@@H]2OC(C)CC(N(C)C)C2O)[C@](C)(OC)C[C@@H](C)CN(C)[C@H](C)[C@H]2N(CCCCn3cc(-c4nccs4)nn3)C(=O)O[C@]12C (stereo partly shown) [FSM-20717]								MIC ([1]; SA101 S. aureus ATCC29213): 16 µg/mL (≈ 18.8 µM); MIC (EC878 E. coli tolC): 1 µg/mL (≈ 1.17 µM); MIC [2]: 16 µg/mL (≈ 18.8 µM); MIC (EC107 E. coli ATCC25922): >32 µg/mL; MIC (EC882 E. coli imp): 1 µg/mL (≈ 1.17 µM); MIC (BS1725 B. subtilis ermC; BS1725 B. subtilis ermC (+ery)): >32 µg/mL; MIC (BS1725 B. subtilis ermC; BS1725 B. subtilis ermC (−ery)): 8 µg/mL (≈ 9.39 µM)
CC[C@H]1OC(=O)[C@H](C)C(=O)C[C@@H](O[C@@H]2OC(C)CC(N(C)C)C2O)[C@](C)(OC)C[C@@H](C)CN(C(C)=O)[C@H](C)[C@H]2N(CCCCn3cc(-c4nc5ccccc5s4)nn3)C(=O)O[C@]12C (stereo partly shown) [FSM-10791]	> 32	2 (≈ 2.23 µM)	> 32	> 32	0.5 (≈ 0.557 µM)	> 32	> 32	
CC[C@H]1OC(=O)[C@H](C)C(=O)C[C@@H](O[C@@H]2OC(C)CC(N(C)C)C2O)[C@](C)(OC)C[C@@H](C)CN(C(C)=O)[C@H](C)[C@H]2N(CCCCn3cc(-c4ccccn4)nn3)C(=O)O[C@]12C (stereo partly shown) [FSM-10792]	> 32	4 (≈ 4.75 µM)	> 32	> 32	1 (≈ 1.19 µM)	> 32	> 32	
CC[C@H]1OC(=O)[C@H](C)C(=O)C[C@@H](O[C@@H]2OC(C)CC(N(C)C)C2O)[C@@](C)(OC)C[C@@H](C)CN[C@H](C)[C@H]2N(CCCCn3cc(-c4nccs4)nn3)C(=O)O[C@]12C (stereo partly shown) [FSM-30501]	> 32	> 32	> 32	> 32	> 32	> 32	> 32	
CC[C@H]1OC(=O)[C@](C)(F)C(=O)C[C@@H](O[C@@H]2OC(C)CC(N(C)C)C2O)[C@](C)(OC)C[C@@H](C)CN[C@H](C)[C@H]2N(CCCCn3cc(-c4cccc(N)c4)nn3)C(=O)O[C@]12C (stereo partly shown) [FSM-10661]	> 32	16 (≈ 19.2 µM)	> 32	> 32	2 (≈ 2.4 µM)	> 32	> 32	
CC[C@H]1OC(=O)[C@H](C)C(=O)C[C@@H](O[C@@H]2OC(C)CC(N(C)C)C2O)[C@@](C)(OC)C[C@@H](C)CN[C@H](C)[C@H]2N(CCCCn3cc(-c4ccccn4)nn3)C(=O)O[C@]12C (stereo partly shown) [FSM-30517]	> 32	> 32	> 32	> 32	> 32	> 32	> 32	
CC[C@H]1OC(=O)[C@H](C)C(=O)C[C@@H](O[C@@H]2OC(C)CC(N(C)C)C2O)[C@](C)(OC)C[C@@H](C)CN(C(C)=O)[C@H](C)[C@H]2N(CCCCn3cc(-c4cccnn4)nn3)C(=O)O[C@]12C (stereo partly shown) [FSM-10794]	> 32	8 (≈ 9.49 µM)	> 32	> 32	16 (≈ 19 µM)	> 32	> 32	
CC[C@H]1OC(=O)[C@](C)(F)C(=O)C[C@@H](O[C@@H]2OC(C)CC(N(C)C)C2O)[C@](C)(OC)C[C@@H](C)CN[C@H](C)[C@H]2N(CCCCn3cc(-c4nccs4)nn3)C(=O)O[C@]12C (stereo partly shown) [FSM-10666]	> 32	16 (≈ 19.4 µM)	> 32	> 32	4 (≈ 4.85 µM)	> 32	> 32	
CC[C@H]1OC(=O)[C@](C)(F)C(=O)C[C@@H](O[C@@H]2OC(C)CC(N(C)C)C2O)[C@](C)(OC)C[C@@H](C)CN[C@H](C)[C@H]2N(CCCCn3cc(-c4ccccn4)nn3)C(=O)O[C@]12C (stereo partly shown) [FSM-10662]	> 32	16 (≈ 19.6 µM)	> 32	> 32	4 (≈ 4.89 µM)	> 32	> 32	
CC[C@H]1OC(=O)[C@H](C)C(=O)C[C@@H](O[C@@H]2OC(C)CC(N(C)C)C2O)[C@](C)(OC)C[C@@H](C)CN[C@H](C)[C@H]2N(CCCCn3cc(-c4ccccn4)nn3)C(=O)O[C@]12C (stereo partly shown) [FSM-10786]	> 32	2 (≈ 2.5 µM)	> 32	> 32	0.25 (≈ 0.312 µM)	> 32	> 32	
CC[C@H]1OC(=O)C(C)(F)C(=O)[C@@H](C)[C@@H](O[C@@H]2OC(C)CC(N(C)C)C2O)[C@](C)(OC)C[C@@H](C)CN[C@H](C)[C@H]2N(CCCCn3cc(-c4nc5ccccc5s4)nn3)C(=O)O[C@]12C (stereo partly shown) [FSM-20722]	8 (≈ 9.01 µM)	1 (≈ 1.13 µM)	16 (≈ 18 µM)	> 32	0.5 (≈ 0.563 µM)	> 32		
CC[C@H]1OC(=O)[C@H](C)C(=O)[C@H](C)[C@@H](O[C@@H]2OC(C)CC(N(C)C)C2O)[C@](C)(OC)C[C@@H](C)CN(C(C)=O)[C@H](C)[C@H]2N(CCCCn3cc(-c4nccs4)nn3)C(=O)O[C@]12C (stereo partly shown) [FSM-20763]	16 (≈ 18.6 µM)	4 (≈ 4.64 µM)	16 (≈ 18.6 µM)	> 32	2 (≈ 2.32 µM)	> 32		
CC[C@H]1OC(=O)[C@](C)(F)C(=O)C[C@@H](O[C@@H]2OC(C)CC(N(C)C)C2O)[C@](C)(OC)C[C@@H](C)CN[C@H](C)[C@H]2N(CCCCn3cc(-c4nc5ccccc5s4)nn3)C(=O)O[C@]12C (stereo partly shown) [FSM-10671]	> 32	32 (≈ 36.6 µM)	> 32	> 32	8 (≈ 9.15 µM)	> 32	> 32	
